The supplement of paper PMC8967900

Experiments:
Test in all cases: selective drug sensitivity score (sDSS, relative to normal bone marrow) (sDSS (score)); higher = more potent and effective on the cell line relative to normal bone marrow cells
Settings in all cases: 72 h
[1] = system: CCRF-HSB2
[2] = system: COG-LL-317
[3] = system: COG-LL-402h
[4] = system: DND-41
[5] = system: HAL-01
[6] = system: HPB-ALL
[7] = system: KARPAS-45
[8] = system: KASUMI-10
[9] = system: KASUMI-2
[10] = system: KASUMI-9
[11] = system: KOPN-8
[12] = system: MOLT-14
[13] = system: MOLT-4
[14] = system: P12-ICHIKAWA
[15] = system: RCH-ACV
[16] = system: REH
[17] = system: RPMI-8402
[18] = system: SUP-B15
[19] = system: TANOUE
[20] = system: TMD5
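Also: ALL cell lines in 384-well plates, five doses spanning 10,000-fold, each plate scaled between vehicle and 100 µmol/L benzalkonium chloride controls, sDSS an adapted area-under-curve metric.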

SMILES | selective drug sensitivity score [1] | selective drug sensitivity score [2] | selective drug sensitivity score [3] | selective drug sensitivity score [4] | selective drug sensitivity score [5] | selective drug sensitivity score [6] | selective drug sensitivity score [7] | selective drug sensitivity score [8] | selective drug sensitivity score [9] | selective drug sensitivity score [10] | selective drug sensitivity score [11] | selective drug sensitivity score [12] | selective drug sensitivity score [13] | selective drug sensitivity score [14] | selective drug sensitivity score [15] | selective drug sensitivity score [16] | selective drug sensitivity score [17] | selective drug sensitivity score [18] | selective drug sensitivity score [19] | selective drug sensitivity score [20]
C=CC(=O)N1CCC[C@@H](n2nc(-c3ccc(Oc4ccccc4)cc3)c3c(N)ncnc32)C1 [Ibrutinib] (top concentration 1000 nM) | 7 | 0 | 9.1 | 0 | 1.9 | 1.5 | 3.4 | 0 | 0 | 1.3 | 2.7 | 2.6 | 1.4 | 0 | 15 | 0 | 1.1 | 10 | 0 | 0.1
O=C(NC1CCNCC1)c1n[nH]cc1NC(=O)c1c(Cl)cccc1Cl [AT7519] (top concentration 10000 nM) | -3.46 | -4.06 | -3.66 | -5.66 | -14.6 | -10.8 | -4.16 | -2.76 | -4.46 | -3.66 | -5.06 | -3.86 | -7.66 | -8.66 | -3.16 | -2.16 | -7.46 | -4.56 | -17.8 | -4.16
CN1CC[C@H](c2c(O)cc(O)c3c(=O)cc(-c4ccccc4Cl)oc23)[C@H](O)C1 [Alvocidib] (top concentration 10000 nM) | 2.2 | 1.7 | -2.1 | -4.1 | -3.5 | -3.1 | 2 | -2.9 | -2.8 | -0.7 | -1.2 | 1.3 | -2.5 | -2.1 | 2.7 | -2 | -1 | 0.1 | -11 | -5.7
O=C(CCCCCCC(=O)Nc1ccc([C@H]2O[C@@H](CSc3nc(-c4ccccc4)c(-c4ccccc4)o3)C[C@@H](c3ccc(CO)cc3)O2)cc1)NO [Tubacin] (top concentration 10000 nM) | 15.8 | 10.3 | 5.04 | 5.54 | 2.14 | 4.44 | 5.04 | 4.54 | 4.14 | 6.54 | 16.9 | 8.34 | 8.34 | 14.9 | 11.2 | 7.44 | 7.64 | 16.5 | 2.74 | 12.9
CN(C)CCOc1ccc(/C(=C(/CCCl)c2ccccc2)c2ccccc2)cc1 [Toremifene] (top concentration 10000 nM) | 1.48 | -0.22 | -2.72 | 6.78 | 3.18 | -1.72 | 0.38 | -5.42 | 5.68 | 0.58 | 0.98 | 2.48 | 2.58 | -1.12 | 6.88 | -1.52 | 0.58 | 2.58 | -2.62 | 0.78
Cc1cc(C(C)Nc2ccccc2)c2nc(N3CCOCC3)cc(=O)n2c1 (stereo not given) [TGX-221] (top concentration 10000 nM) | 2.36 | -1.64 | 1.76 | -1.64 | 7.86 | -1.64 | 1.46 | -1.64 | -1.64 | 1.16 | -1.64 | -1.14 | 0.66 | -1.64 | 13.5 | -0.84 | -0.04 | 0.36 | -0.94 | -1.64
CN1CCN(c2nc(C3=C(c4c[nH]c5ccccc45)C(=O)NC3=O)c3ccccc3n2)CC1 [Sotrastaurin] (top concentration 10000 nM) | 3.5 | 0 | 5.2 | 0.3 | 2.3 | 2.6 | -0.4 | 7.7 | 2.8 | 0.5 | 6.4 | -2 | -1.7 | -1.3 | 3.4 | 4.8 | 0 | 2.2 | -2.3 | 2.9
CNC(=O)c1cc(Oc2ccc(NC(=O)Nc3ccc(Cl)c(C(F)(F)F)c3)cc2)ccn1 [Sorafenib] (top concentration 1000 nM) | 0 | 0 | 0 | 0 | 2.9 | 0.1 | 0.5 | 12.2 | 0 | 0 | 2 | 0 | 0 | 0 | 1.4 | 0.2 | 0 | 0 | 0 | 0
CC1CCC(n2c3cnccc3c3cnc(Nc4ccc5c(n4)CCN(C(=O)CO)C5)nc32)CC1 (stereo not given) [AMG-925] (top concentration 1000 nM) | 1.94 | 1.44 | 6.14 | 6.14 | 3.44 | 5.84 | 1.84 | 9.54 | -0.66 | 8.24 | 10.9 | 6.14 | 2.34 | 3.84 | 14.7 | 3.44 | 5.74 | 11.7 | 1.94 | -0.66
NC[C@@](O)(c1ccc(Cl)cc1)c1ccc(-c2cn[nH]c2)cc1 (top concentration 10000 nM) | 5.28 | 0.98 | 5.78 | -1.22 | 1.08 | -0.72 | 2.78 | -1.22 | 2.78 | 3.78 | 3.38 | -1.22 | -0.42 | 3.58 | 7.58 | 2.88 | 3.28 | 6.78 | -1.22 | 4.98
C/C=C1\NC(=O)[C@H]2CSSCC/C=C/[C@H](CC(=O)N[C@H](C(C)C)C(=O)N2)OC(=O)[C@H](C(C)C)NC1=O [Romidepsin] (top concentration 1000 nM) | 1.46 | 0.76 | 8.76 | 4.76 | -17.5 | 3.66 | 2.86 | 1.86 | 5.06 | 3.16 | 3.16 | 2.16 | 1.76 | 1.66 | 2.36 | 1.26 | 1.66 | 4.16 | -11 | 3.46
CC(C)c1cc(-c2n[nH]c(=O)n2-c2ccc3c(ccn3C)c2)c(O)cc1O [Ganetespib] (top concentration 1000 nM) | 4.34 | 8.64 | 4.54 | 2.94 | 0.74 | 0.64 | -0.26 | 4.64 | 6.04 | 0.14 | 10.1 | 1.74 | 3.14 | -0.96 | 3.44 | 0.54 | -1.66 | 1.74 | -8.36 | -5.36
COc1cc(Nc2ncc(F)c(Nc3ccc4c(n3)N(COP(=O)(O)O)C(=O)C(C)(C)O4)n2)cc(OC)c1OC [Fostamatinib] (top concentration 2500 nM) | 4.46 | -2.84 | 3.46 | -0.64 | 0.76 | -1.94 | 4.56 | 8.66 | -2.84 | 1.76 | 4.66 | -0.34 | -2.04 | -2.84 | 7.96 | -1.84 | -0.24 | 0.96 | -1.94 | -2.84
N#CCNC(=O)c1ccc(-c2ccnc(Nc3ccc(N4CCOCC4)cc3)n2)cc1 [Momelotinib] (top concentration 10000 nM) | 1.08 | -5.32 | -0.12 | -0.32 | -5.22 | -8.52 | 0.18 | 0.98 | -5.82 | -0.12 | -1.62 | -3.92 | -4.72 | -0.12 | 5.78 | -4.82 | -0.82 | 0.88 | -9.62 | -4.72
Nc1nc(Cl)nc2c1ncn2[C@@H]1O[C@H](CO)[C@@H](O)[C@@H]1F [Clofarabine] (top concentration 10000 nM) | 6.8 | 7.1 | 8.1 | 1.4 | 2.7 | -8.5 | -22.6 | 1 | 8.3 | 7.3 | 6.7 | 11.4 | 3.7 | 2.1 | 6.8 | 2.3 | 3.5 | 10.5 | -18.6 | -26.5
COc1cc(N2CCC(N3CCN(C)CC3)CC2)ccc1Nc1ncc(Cl)c(Nc2ccccc2P(C)(C)=O)n1 [Brigatinib] (top concentration 1000 nM) | -1.14 | -2.34 | -2.04 | 7.16 | 6.06 | 3.06 | -1.74 | 4.76 | -3.24 | 3.56 | -3.34 | 3.16 | 0.36 | -3.34 | 8.86 | -3.34 | -2.44 | -3.34 | -3.34 | -2.04
CCN1CCN(Cc2ccc(Nc3ncc(F)c(-c4cc(F)c5nc(C)n(C(C)C)c5c4)n3)nc2)CC1 [Abemaciclib] (top concentration 2500 nM) | -2.46 | -2.36 | 1.74 | 0.34 | -3.06 | -2.46 | -4.66 | -1.06 | 1.74 | 5.44 | 20.2 | 1.44 | -1.96 | -4.06 | 8.74 | -0.06 | 0.74 | 6.74 | -9.66 | -9.66
CC(C)C[C@H](NC(=O)CNC(=O)c1cc(Cl)ccc1Cl)B(O)O [Ixazomib] (top concentration 1000 nM) | 8.86 | 6.26 | 3.46 | 9.36 | 8.26 | 8.46 | 5.96 | 3.16 | 4.66 | 6.56 | 6.26 | 4.96 | 5.46 | 5.76 | 7.36 | 6.76 | 6.56 | 11.5 | -6.64 | 4.06
